Patent US20120252773A1, “Method and composition for inhibiting cell proliferation and angiogenesis” (priority 2005, published 2012)

Legend:
[1] = test system: granulation tissue in fibrin Z-chambers; test: In vivo fibrin-Z chamber assay, wound healing and microvessel density; conditions: rat
Procedure: An in vivo fibrin-Z chamber assay (K. Amin et al., Cancer Biol. Ther. 2:173-178, (2003) was run to analyze wound healing and microvessel density. Plasminogen-free fibrinogen and thrombin were added to a sterile dual porous chamber through a port. To implant the chambers into rats, the animals were anesthetized with 35 mg/kg of sodium pentobarbital. Two incisions approximately 2 cm in length each were made on the dorsum, one over the mid vertebral and the other over the lower vertebral regions. Pockets were made in the subcutaneous fascia lateral to the incisions using blunt end scissors, and the chambers were placed deep into the pockets. The incision wounds were closed with an autoclip stapling device. Triple antibiotic ointment was applied to the incision area to prevent infection. At 24 h after the implantation, rats began to receive a single daily oral dose of (2) at 0, 3, or 30 mg/kg for 12 days. At the end of 12th day, animals were sacrificed. The chambers were harvested, fixed in 10% formalin overnight, and embedded in paraffin for histological analysis. To determine the effect of (2) on wound healing response, granulation tissue (GT) thickness was measured in microns on H&E-stained cross sections of fibrin Z-chambers using the Zeiss Axioskop II equipped with digital camera (Axiocam) and digital imaging software KS 300. To measure the effect of (2) on microvessel density, immunohistochemistry was performed on 4 μm thick paraffin-embedded sections. The sections were deparaffinized in Hemo-D, rehydrated in graded alcohols, subjected to endogenous peroxidase block in 3% H2O2, boiled in 10% citrate buffer for antigen retrieval, blocked with 5% donkey serum, and placed overnight at 4° C. with primary […] monoclonal antibody at 1:20 dilution. […] Images of three hot spots (×200 fields showing maximal vessel density) were captured from each section and the blood vessels counted using the Zeiss interactive digital imaging software KS300. A total of 15 high-power fields (HPFs, 40×) were counted for vessel density for each group.

[2] = test system: HIF-1α protein in PC-3 prostate cancer cells; test: HIF-1α protein expression by immunoblotting, PC-3 cells; assay type: cell-based, human; conditions: 6 h
Procedure: (§1) Hypoxia experiments were performed in either of two ways. To produce a very low ambient oxygen concentration (effectively anoxia), we used a protocol in which cells were incubated in a 5% CO2-air atmosphere at 37° C. overnight and then placed in aluminum gas-exchange chambers maintained at 37° C. (Laderoute K R et al. Mol Cell Biol 22: 2515-2523, (2002); Laderoute K R et al. Mol Cell Biol 24: 4128-4137, (2004)). The chambers containing the cells were then placed in a 37° C. circulating water bath and the original atmosphere was repeatedly exchanged with 5% CO2-95% N2 using a manifold equipped with a vacuum pump and a gas cylinder. Atmospheric oxygen partial pressure (pO2) values of less than or equal to 0.01% (relative to air at pO2 of about 21%) can be achieved inside the chambers using this system. Following various hypoxic exposures, the chambers were opened an anaerobic glove box (Bactron X, Sheldon Manufacturing Inc., Cornelius, Oreg.; attached to a cylinder containing 5% CO2-95% N2) to prepare cell lysates without significant reoxygenation. All manipulations of hypoxic cells were performed in the anaerobic glove box. Atmospheric oxygen levels in both the chambers and the glove box have been measured and calibrated using a polarographic oxygen electrode (Oxygen Sensors, Inc., Norristown, Pa.). Hypoxia experiments involving a pO2 of 1% were performed by equilibrating the glove box with an atmosphere of 1% O2 5% CO2 95% N2 held at 37° C. with a circulating fan. Cells were incubated inside a humidified space in the glove box and the medium on the cells was gently and continually agitated by using a rotary shaker. For these experiments, we used RAW 264.7 immortalized mouse macrophages as normal control cells, PC-3 prostate cancer cells, and MDA-MB-231 breast cancer cells, all available from ATCC.
(§2) We used immunoblotting to evaluate the experiments. Nuclear lysates were used to detect HIF-1α protein by immunoblotting (Murphy B J et al. Biochem Biophys Res Commun (In Press): 2005). Briefly, cells were placed on ice in air or on Super Ice® cold packs in the anaerobic glove box and the medium was removed. […] After spinning at 9,000×g for 5 min at 4° C., the protein concentrations of the supernatants were determined by using a bicinchoninic acid assay (Pierce Biotechnology). […] Primary antibody binding was detected and visualized by using the ECL Plus Western Blotting Detection System (Amersham Pharmacia Biotech) according to the supplier's instructions. HIF-1α protein was detected by using an anti-HIF-1α monoclonal antibody (Novus Biologicals, Cat. No. NB100-123; diluted 1:500) and a horseradish peroxidase-conjugated anti-mouse IgG secondary antibody (Santa Cruz Biotechnology, Cat. No. sc-2062; diluted 1:20,000). […]

[3] = test system: HIF-1α protein in MDA-MB-231 human breast carcinoma cells; test: HIF-1α protein expression by immunoblotting, MDA-MB-231 cells; assay type: cell-based; conditions: MDA-MB-231, normoxic and anoxic
Procedure: as §1, with “Hypoxia experiments involving a pO2 of 1% were performed by equilibrating the glove box with an atmosphere of 1% O2 5% CO2 95% N2 held at 37° C. with a circulating fan. Cells were incubated inside a humidified space in the glove box and the medium on the cells was gently and continually agitated by using a rotary shaker. For these experiments, we used RAW 264.7 immortalized mouse macrophages as normal control cells, PC-3 prostate cancer cells, and MDA-MB-231 breast cancer cells, all available from ATCC.” left out
as §2, with “experiments.” for “experiments. Nuclear lysates were used to detect HIF-1α protein by immunoblotting (Murphy B J et al. Biochem Biophys Res Commun (In Press): 2005). Briefly, cells were placed on ice in air or on Super Ice® cold packs in the anaerobic glove box and the medium was removed.”

Which “decrease in granulation tissue thickness” value ([1]; 3 mg/kg oral once daily for 12 days) does the source give for `C[C@@H]1Cc2cc(O)ccc2C2CCC3(C)/C(=C/COCCN(C)C)CCC3C21` (stereo partly drawn) [Compound (2), (E)-3-Hydroxy-7α-methyl-21-[(2-dimethylamino)ethoxy]-19-norpregna-1,3,5(10),17(20)-tetraene] here?
Its value is “about 20%”.

What about the “decrease in granulation tissue thickness” value ([1]; 30 mg/kg oral once daily for 12 days) of the same molecule?
The value was “more than 35%”.

And the “decrease in microvessel formation as compared to the control” value ([1]; oral once daily for 12 days, dose not stated)?
The value was 30%.

What about the HIF-1α protein expression ([2]; PC-3, anoxic, hypoxic and normoxic conditions, less than or equal to 5 μM) of the same molecule?
Its HIF-1α protein expression is “potent inhibitory effect”.

What about the “cytotoxicity toward PC-3 cells” value ([2]; PC-3, less than or equal to 5 μM) of the same molecule?
Its value is “without obvious cytotoxicity”.

What about the HIF-1α protein expression [3] of the same molecule?
Its HIF-1α protein expression is “potent inhibitor”.
